{"source": "patent US20090023684A1", "about": "“FLUID FOR PERITONEAL DIALYSIS” (priority 2005, published 2009)", "experiment": "Body fluid removability of DF using dialysis tube (Experiment 2)", "settings": "similar experiment, compared with the CNN results; data omitted", "protocol": "Experiments, examining the effects of a cyclic tetrasaccharide on the body fluid removability of DF, were carried out using dialysis tube as follows:\nAccording to the compositions shown in Table 2, DFs comprising glucose or CNN are prepared, respectively. Into a dialysis tube (Molecular weight cut off: 15,000 daltons; diameter: 16 mm; length: 70 mm), 1.5 milliliters each of the DF was poured and sealed using a closer, and then put into one liter of a dialyzing solution, prepared by admixed sodium chloride and dextran (Molecular weight: 60,000 to 90,000 daltons; commercialized by Wako Pure Chemical Industries Ltd., Osaka, Japan) with purified water to give concentrations of 9 g/L and 6 g/L, respectively, for dialysis. The fluid volumes in the dialysis tube at one to 14 hours after the start of dialysis were examined by measuring the weight of the tube. In the experiment, three dialysis tubes were used for a kind of DF. The changes of fluid volumes in the dialysis tubes were measured by calculating the average of the results of three tubes expressed as relative values using each fluid volume at the start of dialysis as 100."}
{"molecule": "OC[C@H]1O[C@@H]2OC[C@H]3O[C@H](O[C@H]4[C@H](O)[C@@H](O)[C@@H](OC[C@H]5O[C@H](O[C@H]1[C@H](O)[C@H]2O)[C@H](O)[C@@H](O)[C@@H]5O)O[C@@H]4CO)[C@H](O)[C@@H](O)[C@@H]3O", "note": "[CMM, cyclomaltosylmaltose]", "values": [{"measurement": "Fluid volume increase in dialysis tube with CMM used instead of CNN in Table 2", "result": "almost the same results"}]}
